Here are results for nine compounds from US20260022142A1, “MACROCYCLIC IMMUNOMODULATORS” (Bristol-Myers Squibb Company, priority 2022, published 2026).

Numbered stars: 1 amine (or outer) side, 2 acyl side, 3 side chain; on linkers, the order of the positions; unused ones are H or OH. Bridge positions count the residues as written; N and C are the ends. Square brackets hold non-standard residues; d marks the D form. Peptide text beside a SMILES is read from it. * marks the point of attachment. Phe(3,4-Cl2) = N[C@@H](Cc1ccc(Cl)c(Cl)c1)C(=O)O; Phe(4-COOH) = N[C@@H](Cc1ccc(C(=O)O)cc1)C(=O)O; X9 = O=C([C@H](Cc1cc(F)c(F)cc1F)N[*:1])[*:2]; Bip = N[C@@H](Cc1ccc(-c2ccccc2)cc1)C(=O)O; Phe(3-Me) = Cc1cccc(C[C@H](N)C(=O)O)c1; 1Nal = N[C@@H](Cc1cccc2ccccc12)C(=O)O; Bta = N[C@@H](Cc1csc2ccccc12)C(=O)O; Cha = N[C@@H](CC1CCCCC1)C(=O)O; Carboxymethyl = O=C(O)C*; Orn = NCCC[C@H](N)C(=O)O; Aun = NCCCCCCCCCCC(=O)O; Dab = NCC[C@H](N)C(=O)O; Dap = NC[C@H](N)C(=O)O; AEEA = NCCOCCOCC(=O)O

This experiment deals with T1, PD-1/PD-L1 interaction (PE-labeled human PD-L1-Ig binding to Jurkat cell line over-expressing human PD-1) (Homo sapiens, UniProt Q15116).
T1 construct: expressed in transfected cells; host or cells: Jurkat
T1 sequence (Q15116 25-288): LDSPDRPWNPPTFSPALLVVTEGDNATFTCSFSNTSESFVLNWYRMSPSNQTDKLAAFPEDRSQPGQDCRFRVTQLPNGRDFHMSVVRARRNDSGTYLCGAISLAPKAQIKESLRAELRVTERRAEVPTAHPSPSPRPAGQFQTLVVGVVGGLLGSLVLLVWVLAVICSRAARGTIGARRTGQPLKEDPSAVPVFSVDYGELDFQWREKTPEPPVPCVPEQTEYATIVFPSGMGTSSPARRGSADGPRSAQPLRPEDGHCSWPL
The experiment is described as follows: Jurkat-PD-1 Cell Binding High-Content Screening Assay (CBA). It is filed as cell-based. The settings on record: Jurkat cell line over-expressing human PD-1; PE-labeled PD-L1-Ig 20 nM final; read-out: Jurkat hPD1-PDL1 IC50. In a few lines:
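Binding of fluorescent PD-L1-Ig (phycoerythrin on Ig tag, 20 nM final, 1 h) measured by high-content imaging of fixed, Hoechst-counterstained Jurkat-hPD-1 cells. Compound added 2 h at 37° C beforehand, in DMEM with 10% fetal calf serum.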
Consider `Cc1cccc(C[C@@H]2NC(=O)[C@H](CC(=O)O)NC(=O)[C@H](Cc3ccc(OCC(=O)O)cc3)NC(=O)[C@H]([C@@H](C)O)NC(=O)CSC[C@@H](C(=O)N[C@@H](CCCCN)C(=O)NCCCCCCCCCCC(=O)O)NC(=O)[C@H]([C@@H](C)O)NC(=O)[C@H](C(C)C)NC(=O)[C@H](CC3CCCCC3)NC(=O)[C@H](CCN)NC(=O)[C@@H](CC(C)C)NC(=O)[C@H](CCCN)NC(=O)[C@H](Cc3ccc(OCC(=O)O)cc3)NC(=O)[C@H](Cc3ccc(-c4ccccc4)cc3)NC(=O)[C@H](Cc3ccc(C(=O)O)cc3)NC2=O)c1` [Compound 1303] ({CH2CO}-TY(Carboxymethyl)D[Phe(3-Me)][Phe(4-COOH)][Bip]Y(Carboxymethyl)[Orn][dL][Dab][Cha]VTCK[Aun]-OH; thioether N-14), for which the IC50 is 32.2 nM.

Take `CC(C)C[C@H]1NC(=O)[C@H](CCCN)NC(=O)[C@H](Cc2ccc(O)cc2)NC(=O)[C@H](Cc2ccc(-c3ccccc3)cc2)NC(=O)[C@H](C(C)C)NC(=O)[C@H](Cc2csc3ccccc23)NC(=O)[C@H](CC(=O)O)NC(=O)[C@H](Cc2ccc(OCC(=O)O)cc2)NC(=O)[C@H](CN)NC(=O)CSC[C@@H](C(=O)N[C@@H](CCN)C(=O)NCCOCCOCC(=O)NCCCCCCCCCCC(=O)O)NC(=O)[C@H](CCCN)NC(=O)[C@H](C(C)C)NC(=O)[C@H](CC2CCCCC2)NC(=O)[C@H](CCN)NC1=O` [Compound 1304] ({CH2CO}-[Dap]Y(Carboxymethyl)D[Bta]V[Bip]Y[Orn][dL][Dab][Cha]V[Orn]C[Dab][AEEA][Aun]-OH; thioether N-14): the IC50 amounted to 37.3 nM.

As for `CC(C)C[C@H]1NC(=O)[C@H](CCCN)NC(=O)[C@H](Cc2ccc(O)cc2)NC(=O)[C@H](Cc2ccc(-c3ccccc3)cc2)NC(=O)[C@H](Cc2ccc(OCC(=O)O)cc2)NC(=O)[C@H](Cc2cccc3ccccc23)NC(=O)[C@H](CC(=O)O)NC(=O)[C@H](Cc2ccc(OCC(=O)O)cc2)NC(=O)[C@H](CN)NC(=O)CSC[C@@H](C(=O)N[C@@H](CCN)C(=O)NCCOCCOCC(=O)NCCCCCCCCCCC(=O)O)NC(=O)[C@H](CCCN)NC(=O)[C@H](C(C)C)NC(=O)[C@H](CC2CCCCC2)NC(=O)[C@H](CCN)NC1=O` [Compound 1305] ({CH2CO}-[Dap]Y(Carboxymethyl)D[1Nal]Y(Carboxymethyl)[Bip]Y[Orn][dL][Dab][Cha]V[Orn]C[Dab][AEEA][Aun]-OH; thioether N-14), the half-maximal inhibitory concentration (IC50) came to 43.4 nM.

Take `CC(C)C[C@H]1NC(=O)[C@H](CCCN)NC(=O)[C@H](Cc2ccc(O)cc2)NC(=O)[C@H](Cc2ccc(-c3ccccc3)cc2)NC(=O)[C@H](Cc2ccc(OCC(=O)O)cc2)NC(=O)[C@H](Cc2c[nH]c3ccccc23)NC(=O)[C@H](CC(=O)O)NC(=O)[C@H](Cc2ccc(OCC(=O)O)cc2)NC(=O)[C@H](CN)NC(=O)CSC[C@@H](C(=O)N[C@@H](CCN)C(=O)NCCOCCOCC(=O)NCCCCCCCCCCC(=O)O)NC(=O)[C@H](CCCN)NC(=O)[C@H](C(C)C)NC(=O)[C@H](CC2CCCCC2)NC(=O)[C@H](CCN)NC1=O` [Compound 1306] ({CH2CO}-[Dap]Y(Carboxymethyl)DWY(Carboxymethyl)[Bip]Y[Orn][dL][Dab][Cha]V[Orn]C[Dab][AEEA][Aun]-OH; thioether N-14): the concentration for half-maximal inhibition (IC50) was determined as 48.9 nM.

Regarding `CC(C)C[C@H]1NC(=O)[C@H](CCCN)NC(=O)[C@H](Cc2ccc(O)cc2)NC(=O)[C@H](Cc2ccc(-c3ccccc3)cc2)NC(=O)[C@H](Cc2ccc(OCC(=O)O)cc2)NC(=O)[C@H](Cc2ccc(Cl)c(Cl)c2)NC(=O)[C@H](CC(=O)O)NC(=O)[C@H](Cc2ccc(OCC(=O)O)cc2)NC(=O)[C@H](CN)NC(=O)CSC[C@@H](C(=O)N[C@@H](CCN)C(=O)NCCOCCOCC(=O)NCCCCCCCCCCC(=O)O)NC(=O)[C@H](CCCN)NC(=O)[C@H](C(C)C)NC(=O)[C@H](CC2CCCCC2)NC(=O)[C@H](CCN)NC1=O` [Compound 1307] ({CH2CO}-[Dap]Y(Carboxymethyl)D[Phe(3,4-Cl2)]Y(Carboxymethyl)[Bip]Y[Orn][dL][Dab][Cha]V[Orn]C[Dab][AEEA][Aun]-OH; thioether N-14), the half-maximal inhibitory concentration (IC50) turned out to be 49.6 nM.

Turning to `CC(C)C[C@H]1NC(=O)[C@H](CCCN)NC(=O)[C@H](Cc2ccc(O)cc2)NC(=O)[C@H](Cc2ccc(-c3ccccc3)cc2)NC(=O)[C@H](C(C)C)NC(=O)[C@H](Cc2cc(F)c(F)cc2F)NC(=O)[C@H](CC(=O)O)NC(=O)[C@H](Cc2ccc(OCC(=O)O)cc2)NC(=O)[C@H](CN)NC(=O)CSC[C@@H](C(=O)N[C@@H](CCN)C(=O)NCCOCCOCC(=O)NCCCCCCCCCCC(=O)O)NC(=O)[C@H](CCCN)NC(=O)[C@H](C(C)C)NC(=O)[C@H](CC2CCCCC2)NC(=O)[C@H](CCN)NC1=O` [Compound 1308] ({CH2CO}-[Dap]Y(Carboxymethyl)D[X9]V[Bip]Y[Orn][dL][Dab][Cha]V[Orn]C[Dab][AEEA][Aun]-OH; thioether N-14), the IC50 came to 59.7 nM.

`CC(C)C[C@H]1NC(=O)[C@H](CCCN)NC(=O)[C@H](Cc2ccc(O)cc2)NC(=O)[C@H](Cc2ccc(-c3ccccc3)cc2)NC(=O)[C@H](Cc2ccc(OCC(=O)O)cc2)NC(=O)[C@H](Cc2csc3ccccc23)NC(=O)[C@H](CC(=O)O)NC(=O)[C@H](Cc2ccc(OCC(=O)O)cc2)NC(=O)[C@H](CN)NC(=O)CSC[C@@H](C(=O)N[C@@H](CCN)C(=O)NCCOCCOCC(=O)NCCCCCCCCCCC(=O)O)NC(=O)[C@H](CCCN)NC(=O)[C@H](C(C)C)NC(=O)[C@H](CC2CCCCC2)NC(=O)[C@H](CCN)NC1=O` [Compound 1309] ({CH2CO}-[Dap]Y(Carboxymethyl)D[Bta]Y(Carboxymethyl)[Bip]Y[Orn][dL][Dab][Cha]V[Orn]C[Dab][AEEA][Aun]-OH; thioether N-14): the IC50 was 63.4 nM.

For the compound `CC(C)C[C@H]1NC(=O)[C@H](CCCN)NC(=O)[C@H](Cc2ccc(O)cc2)NC(=O)[C@H](Cc2ccc(-c3ccccc3)cc2)NC(=O)[C@H](C(C)C)NC(=O)[C@H](Cc2ccc(Cl)c(Cl)c2)NC(=O)[C@H](CC(=O)O)NC(=O)[C@H](Cc2ccc(OCC(=O)O)cc2)NC(=O)[C@H](CN)NC(=O)CSC[C@@H](C(=O)N[C@@H](CCN)C(=O)NCCOCCOCC(=O)NCCCCCCCCCCC(=O)O)NC(=O)[C@H](CCCN)NC(=O)[C@H](C(C)C)NC(=O)[C@H](CC2CCCCC2)NC(=O)[C@H](CCN)NC1=O` [Compound 1310] ({CH2CO}-[Dap]Y(Carboxymethyl)D[Phe(3,4-Cl2)]V[Bip]Y[Orn][dL][Dab][Cha]V[Orn]C[Dab][AEEA][Aun]-OH; thioether N-14), the IC50 was found to be 64.6 nM.

Consider `CC(C)C[C@H]1NC(=O)[C@H](CCCN)NC(=O)[C@H](Cc2ccc(O)cc2)NC(=O)[C@H](Cc2ccc(-c3ccccc3)cc2)NC(=O)[C@H](Cc2ccc(OCC(=O)O)cc2)NC(=O)[C@H](Cc2ccc(O)cc2)NC(=O)[C@H](CC(=O)O)NC(=O)[C@H](Cc2ccc(OCC(=O)O)cc2)NC(=O)[C@H](CN)NC(=O)CSC[C@@H](C(=O)N[C@@H](CCN)C(=O)NCCOCCOCC(=O)NCCCCCCCCCCC(=O)O)NC(=O)[C@H](CCCN)NC(=O)[C@H](C(C)C)NC(=O)[C@H](CC2CCCCC2)NC(=O)[C@H](CCN)NC1=O` [Compound 1311] ({CH2CO}-[Dap]Y(Carboxymethyl)DYY(Carboxymethyl)[Bip]Y[Orn][dL][Dab][Cha]V[Orn]C[Dab][AEEA][Aun]-OH; thioether N-14), for which the IC50 stood at 103 nM.
